Experimental data: patent publication US10376520B2, “Methods for the treatment of cardiovascular disorders” (Galapagos NV, priority 2015, dated 2019)

Tested on: RA patients
Experiment: Disease Activity Score 28 (DAS28(CRP)), Study 1
Type: in vivo, human
Text: As used herein, the term ‘DAS28(CRP)’ refers to a clinical scoring ranging from 2.0 to 10.0 to measure the disease status at a given point in time, and thereby follow the progress and improvement of rheumatoid arthritis in a patient, and includes a 28 tender and swollen joint count, CRP measurement from blood analysis, and a general health assessment on a visual analog scale. A DAS28(CRP) value below 2.6 is indicative of remission, A DAS28(CRP) between 2.6 and 3.2 is indicative of low disease activity, between 3.2 and 5.1 is indicative of moderate disease activity, whereas a DAS28(CRP) above 5.1 is linked to high disease activity. (Wells et al., 2008)
Double-blind, placebo-controlled add on study in subjects with moderately to severely active RA who have an inadequate response to methotrexate (MTX) (oral or parenteral).
Compound 1 (dosed as a [Compound 1:HCl:3H2O]) is dosed for twelve weeks once daily (q.d.) (50 mg, 100 mg or 200 mg) or twice daily (b.i.d.) (25 mg, 50 mg or 100 mg); or placebo.
At Week 12, the subjects on placebo who have not achieved 20% improvement in swollen joint count (SJC66) and tender joint count (TJC68) are re-randomized automatically to receive Compound 1 (dosed as a [Compound 1:HCl:3H2O]) either at 100 mg q.d. or 50 mg b.i.d. doses in a blinded fashion; subjects on 50 mg q.d. who have not achieved 20% improvement in SJC66 and TJC68 will be assigned to 100 mg q.d. and subjects on 25 mg b.i.d. that have not achieved a 20% improvement in SJC66 and TJC68 will be assigned to 50 mg b.i.d. Subjects who switch treatment at week 12 are handled as if they discontinued at week 12 for the purpose of statistical analysis, whereas subjects in the other groups will maintain their randomized treatment until Week 24.
The (DAS28(CRP)) is a system developed and validated by the European League Against Rheumatism (EULAR) to measure the progress and improvement of rheumatoid arthritis and has been extensively validated (Wells et al., 2008). The DAS28(CRP) scoring includes a 28 tender and swollen joint count, CRP measurement from blood analysis, and a general health assessment on a visual analog scale (Fransen et al., 2003).
DAS28(CRP) values range from 2.0 to 10.0, and more particularly reflect the following status: • Remission: DAS28(CRP)≤2.6 • Low Disease activity: 2.6<DAS28(CRP)≤3.2 • Moderate Disease Activity: 3.2<DAS28(CRP)≤5.1 • High Disease Activity: DAS28(CRP)>5.1
In practice, the DAS28(CRP) measurement involves the evaluation 28 different joints including in the measurement (proximal interphalangeal joints (10 joints), metacarpophalangeal joints (10), wrists (2), elbows (2), shoulders (2), and knees (2)). When looking at these joints, both the number of joints with tenderness upon touching and swelling are counted.
Firstly, the patient is asked to make a vertical mark on a 100 mm Visual Analog Scale (VAS) corresponding to their general health or global disease activity. Using an electronic touchscreen, the mark is measured from the left-hand side in mm to obtain the VAS value, which is used in the formula below.
Secondly, a swollen and tender joint examination is then performed on the patient. The swollen and tender joints are recorded. From this examination are obtained the total amount of swollen joints (SJC) and the total amount of tender joints (TJC), which are used in the formula below.
Thirdly, C-reactive protein (CRP) levels (in mg/dL) are measured.
Finally, the values obtained above (VAS, JTC28, SJC28, and CRP) are computed into the following Formula to obtain the DAS28(CRP) score.
The number of subjects (N) provided in each groups corresponds to the number of patients starting the study in each group, and the DAS28 (CRP) data reported below corresponds to the responding patients continuing for the entire 24 weeks on their initial treatment course.

Structure (SMILES): O=C(Nc1nc2cccc(-c3ccc(CN4CCS(=O)(=O)CC4)cc3)n2n1)C1CC1 [Compound 1, cyclopropanecarboxylic acid {5-[4-(1,1-dioxo-thiomorpholin-4-ylmethyl)-phenyl]-[1,2,4]triazolo[1,5-a]pyridin-2yl}-amide]
- DAS28(CRP) mean CFB (LOCF) - 24 weeks results (50 mg q.d., Week 24): −1.98
- DAS28(CRP) mean CFB (LOCF) - 12 weeks results (50 mg q.d., week 1): −0.65
- DAS28(CRP) mean CFB (LOCF) - 24 weeks results (50 mg q.d., week 1): −0.65
- DAS28(CRP) mean CFB (LOCF) - 12 weeks results (50 mg q.d., week 2): −0.94
- DAS28(CRP) mean CFB (LOCF) - 24 weeks results (50 mg q.d., week 2): −0.94
- DAS28(CRP) mean CFB (LOCF) - 24 weeks results (50 mg q.d., week 4): −1.28
- DAS28(CRP) mean CFB (LOCF) - 12 weeks results (50 mg q.d., week 12): −1.75
- DAS28(CRP) mean CFB (LOCF) - 24 weeks results (50 mg q.d., week 12): −1.75
- DAS28(CRP) mean CFB (LOCF) - 24 weeks results (100 mg q.d., week 1): −1.00
- DAS28(CRP) mean CFB (LOCF) - 12 weeks results (100 mg q.d., week 2): −1.50
- DAS28(CRP) mean CFB (LOCF) - 24 weeks results (100 mg q.d., week 16): −2.51
- DAS28(CRP) mean CFB (LOCF) - 24 weeks results (100 mg q.d., week 24): −2.70
- % patients reaching low disease activity and/or remission at week 24 (LOCF) (200 mg q.d.): 52%
- DAS28(CRP) mean CFB (LOCF) - 24 weeks results (200 mg q.d., week 1): −1.17
- DAS28(CRP) mean CFB (LOCF) - 24 weeks results (200 mg q.d., week 2): −1.52
- DAS28(CRP) mean CFB (LOCF) - 12 weeks results (200 mg q.d., week 8): −2.30
- DAS28(CRP) mean CFB (LOCF) - 24 weeks results (200 mg q.d., week 16): −2.70
- DAS28(CRP) mean CFB (LOCF) - 24 weeks results (200 mg q.d., week 24): −2.80
- % patients reaching low disease activity and/or remission at week 24 (LOCF) (2 × 25 mg b.i.d.): 49%
- DAS28(CRP) mean CFB (LOCF) - 12 weeks results (2 × 25 mg b.i.d., Week 1): −0.68
- DAS28(CRP) mean CFB (LOCF) - 24 weeks results (2 × 25 mg b.i.d., Week 1): −0.68
- DAS28(CRP) mean CFB (LOCF) - 12 weeks results (2 × 25 mg b.i.d., Week 4): −1.45
- DAS28(CRP) mean CFB (LOCF) - 24 weeks results (2 × 25 mg b.i.d., Week 4): −1.45
- DAS28(CRP) mean CFB (LOCF) - 12 weeks results (2 × 25 mg b.i.d., Week 8): −1.82
- DAS28(CRP) mean CFB (LOCF) - 24 weeks results (2 × 25 mg b.i.d., Week 8): −1.82
- DAS28(CRP) mean CFB (LOCF) - 12 weeks results (2 × 50 mg b.i.d., Week 1): −0.84
- DAS28(CRP) mean CFB (LOCF) - 24 weeks results (2 × 50 mg b.i.d., Week 1): −0.84
- DAS28(CRP) mean CFB (LOCF) - 12 weeks results (2 × 50 mg b.i.d., Week 12): −2.10
- DAS28(CRP) mean CFB (LOCF) - 24 weeks results (2 × 50 mg b.i.d., Week 12): −2.10
- DAS28(CRP) mean CFB (LOCF) - 24 weeks results (2 × 50 mg b.i.d., Week 20): −2.40
- DAS28(CRP) mean CFB (LOCF) - 24 weeks results (2 × 50 mg b.i.d., Week 24): −2.40
- DAS28(CRP) mean CFB (LOCF) - 12 weeks results (2 × 100 mg b.i.d., Week 8): −2.72
- DAS28(CRP) mean CFB (LOCF) - 24 weeks results (2 × 100 mg b.i.d., Week 8): −2.72
